Patent publication US6063814A, “Phorbol esters as anti-neoplastic and white blood cell elevating agents” (priority 1997, dated 2000)
“And” between values parts separate entries of the source, which are not always exact repeats. Equal entries are not always repeated. “Also recorded” adds a separate entry of the source.

Test system: White Blood Cell (WBC)
Assay: TPA induced white blood cell changes in patients with solid tumors undergoing chemotherapy
Format: in vivo, humans
Description: TPA solution in a sterile syringe was injected into 200 ml of saline and mixed well for i.v. infusion.
Patients undergoing chemotherapy for the treatment of solid tumors.
Subject No. (11), person. Diagnosis: malignant lymphoma. The patient had received adramycin, vincristine, and hormonal treatment. The blood cell counts were decreased to: Hb: 78 g/L, WBC: 0.7×10^9 /L, platelet: 245×10^9 /L. 0.25 mg TPA was administered to the patient 4 times. The blood cell counts improved to: Hb: 76 g/L, WBC: 6.8×10^9 /L, platelet: 331×10^9 /L. Chemotherapy was then continued for 5 more days, and followed by one dose of 0.5 mg TPA. The WBC count was maintained at 3.0×10^9 /L. The patient is still receiving treatment.
Subject No. (12), person. Diagnosis: brain tumor. Blood profile after chemotherapy was: Hb: 119 g/L, WBC: 3.0×10^9 /L, platelet: 399×10^9 /L. 0.25 mg TPA was given to the patient once. On the day after the TPA treatment, the blood profile was Hb: 123 g/L, WBC: 4.5×10^9 /L, platelet: 436×10^9 /L. The patient received further chemotherapy.
Subject No. (13), person. Diagnosis: lung cancer. After chemotherapy, their blood cell counts were decreased to: Hb: 76 g/L, WBC: 0.9×10^9 /L, platelet: 100×10^9 /L. 0.25 mg TPA was given to the patient twice. On the day after the TPA treatment, Hb: 74 g/L, WBC: 2.5×10^9 /L, platelet: 110×10^9 /L. The patient is still receiving treatment.
Subject No. (14), person. Diagnosis: breast cancer. The WBC after chemotherapy was 3.8×10^9 /L. 0.25 mg of TPA was given to the patient once. The WBC on the day after the TPA treatment was 8.0×10^9 /L.
Subject No. (15), person. Diagnosis: Esophageal Cancer. Surgery was performed, followed by chemotherapy using cisplatin, 5-fluorouracil. Blood profile (before TPA): WBC: 2.4×10^9 /L; neutrophil: 83%, lymphocyte: 17%; platelet: 150×10^9 /L; RBC: 3.43×10^12 /L; Hb: 107 g/L. TPA dosage: 0.25 mg. […] The cardiac, hepatic, renal and pulmonary functions were normal.
Subject No. (16), person. Diagnosis: Esophageal Cancer. Surgery was performed, followed by chemotherapy using VP16, MTX, MMC and cisplatin. TPA dose: 0.25 mg. Blood profile (before TPA): WBC: 2.4×10^9 /L; neutrophil: 67%; lymphocyte: 23%; platelet: 101×10^9 /L; RBC: 3.45×10^12 /L; Hb: 114 g/L. Blood profile (one day after TPA): WBC: 5.2×10^9 /L; neutrophil: 87%; lymphocyte: 13%; platelet 60×10^9 /L; RBC: 3.76×10^12 /L; Hb: 122 g/L. Blood profile (2 days after TPA administration).
Subject No. (17), person. Diagnosis: breast cancer. Surgery was performed, followed by chemotherapy using CTX, MTX, and 5-FU. TPA dose: 0.25 mg×2 (Second dose was 4 days after 1st dose). […] The cardiac, hepatic, renal and pulmonary functions were normal.
Subject No. (18), person. Diagnosis: Colon cancer. Surgery was performed, followed by chemotherapy using Cisplatin, VP16, and 5-FU. TPA dose: 0.25 mg×2 (2nd TPA dose was administered 24 hrs after 1st TPA dose). […] Cardiac hepatic, renal and pulmonary functions were normal.
Subject No. (19), person. Diagnosis: lung cancer metastasized to adrenal gland. Surgery was performed, followed by chemotherapy using MMC, VCR, and CTX. TPA dosage: 0.25 mg×2 (2nd TPA dose was administered 24 hrs after 1st TPA dose). […] Cardiac, hepatic renal and pulmonary functions were normal.
Subject No. (20), person. Diagnosis: esophageal cancer metastasized to liver, lung and brain. The patient received chemotherapy using Taxol, cisplatin, 5-FU and Semustial. Total TPA dosage: 2mg. Blood profile (before TPA): WBC: 0.7×10^9 /L; neutrophil: 29%; lymphocyte: 71%; platelet: N/A; RBC: 2.82×10^12 /L; Hb: 87 g/L. TPA treatment schedule. On the first and third day, 0.25 mg was given and on the 5th, 7th and 9th day 0.5 mg of TPA was given. […] Cardiac, hepatic, renal and pulmonary functions were normal.
Subject No. (21), person. Diagnosis: lymphoma metastasized to bone marrow. […]

[1] = 2 days after second TPA dose (0.25 mg×2)
[2] = 2 days after single TPA 0.25 mg
[3] = 4 days after single TPA 0.25 mg
[4] = 7 days after single TPA 0.25 mg
[5] = one day after second TPA dose (0.25 mg×2)
[6] = one day after single TPA 0.25 mg
[7] = solid tumor patients after TPA 0.25 mg doses
[8] = subject 11, malignant lymphoma, after 0.25 mg TPA 4 times
[9] = subject 17, 3 days after first TPA dose 0.25 mg
[10] = subject 17, 4 days after second TPA dose 0.25 mg
[11] = subject 20, 11th day, TPA total 2 mg over 9 days
[12] = subject 20, day 2, TPA total 2 mg over 9 days
[13] = subject 20, day 4, TPA total 2 mg over 9 days
[14] = subject 20, day 6, TPA total 2 mg over 9 days
[15] = subject 20, day 8, TPA total 2 mg over 9 days
[16] = subject 20, day 13, TPA total 2 mg over 9 days
[17] = subject 21, day 2, TPA total 2.5 mg, days 1-8
[18] = subject 21, day 4, TPA total 2.5 mg, days 1-8
[19] = subject 21, day 7, TPA total 2.5 mg, days 1-8
[20] = subject 21, day 9, TPA total 2.5 mg, days 1-8

**Q.** What does the source list for `CCCCCCCCCCCCCC(=O)O[C@@H]1[C@@H](C)[C@@]2(O)[C@@H](C=C(CO)C[C@]3(O)C(=O)C(C)=C[C@@H]23)[C@@H]2C(C)(C)[C@]12OC(C)=O` [TPA, Phorbol 12-Myristate-13-Acetate]?
**A.** Hb [1]: 101 g/L; WBC [1]: 3.8e+09 L⁻¹ and 5e+09 L⁻¹; lymphocyte [1]: 16% and 20%; neutrophil [1]: 84% and 80%; platelet [1]: 8.4e+10 L⁻¹; Hb [2]: 109 g/L and 116 g/L; RBC [2]: 2.99e+12 L⁻¹; WBC [2]: 4.5e+09 L⁻¹ and 5.6e+09 L⁻¹; lymphocyte [2]: 20% and 19%; neutrophil [2]: 80% and 81%; platelet [2]: 6.4e+10 L⁻¹; Hb [3]: 112 g/L and 129 g/L; RBC [3]: 3.36e+12 L⁻¹; WBC [3]: 4.4e+09 L⁻¹ and 3.9e+09 L⁻¹; platelet [3]: 1.05e+11 L⁻¹; Hb [4]: 118 g/L and 138 g/L; neutrophil [4]: 82% and 48%; recovery of infection fighting cells (after and during chemotherapy): help speed the rapid recovery of the infection fighting cells; Hb [5]: 74 g/L and 112 g/L and 93 g/L; RBC [5]: 4.1 ×10^12; neutrophil [5]: 60% and 82%; platelet [5]: 1.1e+11 L⁻¹ and 1.98e+11 L⁻¹; Hb [6]: 123 g/L and 109 g/L and 122 g/L and 116 g/L and 139 g/L and 126 g/L and 120 g/L; RBC [6]: 3.33e+12 L⁻¹ and 3.76e+12 L⁻¹; neutrophil [6]: 94% and 87% and 79% and 53% and 60% and 90% and 83%; time of elevation of white blood cell count (patients receiving chemotherapy, often): within one day; duration of fever [7]: 4 h; fever, temperature after TPA [7]: 38 °C and 39.2 °C and 37.8 °C and 39 °C; cardiac, hepatic, renal and pulmonary functions (solid tumor patients after TPA, one subject per block): normal; also recorded: same as before TPA treatment; also recorded: functioning normally; Symptoms after TPA (solid tumor patients undergoing chemotherapy, one subject per block): Chill, fever, local irritation and slight headache; also recorded: chills, fever, local irritation; also recorded: Chills at 5th day which lasted about one hour; also recorded: No chills and fever, only local irritation; also recorded: No chills. Low fever; also recorded: Stomach ache and diarrhea (which disappeared soon after); WBC count maintained (subject 11, after 5 more days chemotherapy and one dose 0.5 mg TPA): 3e+09 L⁻¹; Hb [8]: 76 g/L; WBC [8]: 6.8e+09 L⁻¹; platelet [8]: 3.31e+11 L⁻¹; Hb [9]: 107 g/L; RBC [9]: 3.36e+12 L⁻¹; WBC [9]: 2.9e+09 L⁻¹; lymphocyte [9]: 17%; neutrophil [9]: 83%; platelet [9]: 1.22e+11 L⁻¹; Hb [10]: 112 g/L; RBC [10]: 3.49e+12 L⁻¹; WBC [10]: 4.4e+09 L⁻¹; lymphocyte [10]: 14%; neutrophil [10]: 86%; platelet [10]: 1.93e+11 L⁻¹; duration of chills (subject 17, TPA 0.25 mg×2): 2 h; Hb [11]: 61 g/L; RBC [11]: 2.91e+12 L⁻¹; WBC [11]: 2.7e+09 L⁻¹; lymphocyte [11]: 15%; neutrophil [11]: 85%; platelet [11]: 3.76e+10 L⁻¹; Hb [12]: 72 g/L; RBC [12]: 2.17e+12 L⁻¹; WBC [12]: 9e+08 L⁻¹; lymphocyte [12]: 34%; neutrophil [12]: 66%; platelet [12]: 8.2e+10 L⁻¹; Hb [13]: 58 g/L; RBC [13]: 2.09e+12 L⁻¹; WBC [13]: 1.1e+09 L⁻¹; lymphocyte [13]: 9%; neutrophil [13]: 91%; platelet [13]: 3.9e+10 L⁻¹; Hb [14]: 70 g/L; RBC [14]: 1.9 ×10^12; WBC [14]: 1.9e+09 L⁻¹; lymphocyte [14]: 5%; neutrophil [14]: 95%; platelet [14]: 4.3e+10 L⁻¹; Hb [15]: 61 g/L; RBC [15]: 1.71e+12 L⁻¹; WBC [15]: 2.3e+09 L⁻¹; lymphocyte [15]: 9%; neutrophil [15]: 91%; platelet [15]: 9e+10 L⁻¹; Hb [16]: 57 g/L; RBC [16]: 1.73e+12 L⁻¹; WBC [16]: 1.9e+09 L⁻¹; lymphocyte [16]: 10%; neutrophil [16]: 90%; platelet [16]: 3.2e+10 L⁻¹; Hb [17]: 117 g/L; RBC [17]: 4.15e+12 L⁻¹; WBC [17]: 6e+08 L⁻¹; platelet [17]: 6.9e+10 L⁻¹; Hb [18]: 109 g/L; RBC [18]: 3.95e+12 L⁻¹; WBC [18]: 6e+08 L⁻¹; lymphocyte [18]: 72%; neutrophil [18]: 28%; platelet [18]: 6.8e+10 L⁻¹; Hb [19]: 110 g/L; RBC [19]: 4.22e+12 L⁻¹; WBC [19]: 8e+08 L⁻¹; lymphocyte [19]: 12%; neutrophil [19]: 88%; platelet [19]: 6e+10 L⁻¹; Hb [20]: 112 g/L; RBC [20]: 4.02e+12 L⁻¹; WBC [20]: 1.5e+09 L⁻¹; lymphocyte [20]: 2%; neutrophil [20]: 80%; platelet [20]: 6.9e+10 L⁻¹; resolution of injection site symptoms (subject 25, TPA 0.25 mg): disappeared the second day after they appeared; injection site reaction (subject 25, TPA 0.25 mg, probably caused by infusion needle): red, swollen in appearance and painful; duration of raised temperature (subject 26, TPA 0.25 mg): 3 h; Hb (three days after TPA 0.25 mg): 123 g/L; WBC (three days after TPA 0.25 mg): 2.9e+09 L⁻¹; lymphocyte (three days after TPA 0.25 mg): 27%; neutrophil (three days after TPA 0.25 mg): 73%
